Experimental data: paper PMC11149917, “Translational and Therapeutic Evaluation of RAS-GTP Inhibition by RMC-6236 in RAS-Driven Cancers” (Cancer Discovery, 2024)
Read-outs that look alike come from different tables or passages of the source.

System: panel of 78 cancer cell lines
Assay: Cell panel 3D methylcellulose CellTiter-Glo proliferation
Assay type: cell-based
Settings: Homo sapiens
Description: A panel of 78 cancer cell lines harboring mutant and wild-type RAS was selected for screening at Crown Bioscience (Supplementary Table S2). The panel consisted of cell lines with any substitution at position 12 of KRAS, cell lines with any substitutions at position 61 of NRAS, and cell lines with a BRAF^V600E mutation. […] Cells were incubated for 120 hours prior to measurement of adenosine triphosphate (ATP) levels using the CellTiter-Glo Luminescent Cell Viability Assay (CTG; Promega, G7572), a method of determining the number of metabolically active cells based on quantitation of cellular ATP, according to the manufacturer's instructions. To measure induction of apoptosis, cells were incubated with RMC-6236 for 48 hours prior to measuring cleavage of a proluminescent caspase-3/7 DEVD-aminoluciferin substrate using the CaspaseGlo-3/7 Assay (Promega, G8092) according to the manufacturer’s instructions.

CCn1c(-c2cc(N3CCN(C)CC3)cnc2[C@H](C)OC)c2c3cc(ccc31)-c1csc(n1)C[C@H](NC(=O)[C@H]1C[C@@H]1C)C(=O)N1CCC[C@H](N1)C(=O)OCC(C)(C)C2 [RMC-6236]
EC50 (A549, A549, KRAS G12S, Lung, read-out: Proliferation Inhibition (EC50)): 54.6 nM
EC50 (A-375, A375, BRAF V600E, Skin, read-out: Proliferation Inhibition (EC50)): > 100 nM
EC50 (A-427, A427, KRAS G12D, Lung, read-out: Proliferation Inhibition (EC50)): 97.6 nM
EC50 (AGS, KRAS G12D, Stomach, read-out: Proliferation Inhibition (EC50)): 3.2 nM
EC50 (ASH3, NRAS Q61R, Head and Neck/Thyroid, read-out: Proliferation Inhibition (EC50)): 91.4 nM
EC50 (ASPC1, ASPC1, KRAS G12D, Pancreas, read-out: Proliferation Inhibition (EC50)): 6.9 nM
EC50 (CAL-62, CAL62, KRAS G12R, Head and Neck/Thyroid, read-out: Proliferation Inhibition (EC50)): 19 nM
EC50 (CAPAN-1, CAPAN1, KRAS G12V, Pancreas, read-out: Proliferation Inhibition (EC50)): 4.6 nM
EC50 (CFPAC-1, CFPAC1, KRAS G12V, Pancreas, read-out: Proliferation Inhibition (EC50)): 15.2 nM
EC50 (CHP-212, CHP212, NRAS Q61K, Brain and Nerves, read-out: Proliferation Inhibition (EC50)): 21.9 nM
EC50 (COLO 201, COLO201, BRAF V600E, Intestine/Large/Colorectum, read-out: Proliferation Inhibition (EC50)): > 100 nM
EC50 (COR-L23, CORL23, KRAS G12V, Lung, read-out: Proliferation Inhibition (EC50)): 8.6 nM
EC50 (Calu-1, CALU1, KRAS G12C, Lung, read-out: Proliferation Inhibition (EC50)): 2.1 nM
EC50 (Capan-2, CAPAN2, KRAS G12V, Pancreas, read-out: Proliferation Inhibition (EC50)): 5.8 nM
EC50 (CoC1, COC1, KRAS G12D, Ovary, read-out: Proliferation Inhibition (EC50)): 57.1 nM
EC50 (HCC15, HCC15, NRAS Q61K, Lung, read-out: Proliferation Inhibition (EC50)): > 100 nM
EC50 (HCC44, HCC44, KRAS G12C, Lung, read-out: Proliferation Inhibition (EC50)): 3.3 nM
EC50 (HEC-1-A, HEC1A, KRAS G12D, Uterus, read-out: Proliferation Inhibition (EC50)): 44.8 nM
EC50 (HM7, KRAS G12D, Intestine/Large/Colorectum, read-out: Proliferation Inhibition (EC50)): > 100 nM
EC50 (HPAC, KRAS G12D, Pancreas, read-out: Proliferation Inhibition (EC50)): 74.3 nM
EC50 (HPAF-II, HPAFII, KRAS G12D, Pancreas, read-out: Proliferation Inhibition (EC50)): 6.3 nM
EC50 (HT-1080, HT1080, NRAS Q61K, Soft tissue, read-out: Proliferation Inhibition (EC50)): 7.5 nM
EC50 (HepG2, HEPG2, NRAS Q61L, Liver, read-out: Proliferation Inhibition (EC50)): 22.8 nM
EC50 (HuCCT-1, HUCCT1, KRAS G12D, Liver/Bile duct, read-out: Proliferation Inhibition (EC50)): 25.7 nM
EC50 (HuP-T4, HUPT4, KRAS G12V, Pancreas, read-out: Proliferation Inhibition (EC50)): 19 nM
EC50 (KP4, KRAS G12D, Pancreas, read-out: Proliferation Inhibition (EC50)): 31.1 nM
EC50 (KRAS^G12X cells, read-out: median EC50, cell growth inhibition): 8 nM
EC50 (KYSE-410, KYSE410, KRAS G12C, HN/Esophagus, read-out: Proliferation Inhibition (EC50)): 63.2 nM
EC50 (LCLC-97TM1, LCLC97TM1, KRAS G12V, Lung, read-out: Proliferation Inhibition (EC50)): 1.1 nM
EC50 (LS174T, KRAS G12D, Intestine/Large/Colorectum, read-out: Proliferation Inhibition (EC50)): > 100 nM
EC50 (LS180, LS180, KRAS G12D, Intestine/Large/Colorectum, read-out: Proliferation Inhibition (EC50)): 87.1 nM
EC50 (LS-123, LS123, KRAS G12S, Intestine/Large/Colorectum, read-out: Proliferation Inhibition (EC50)): 3.8 nM
EC50 (LS-513, LS513, KRAS G12D, Intestine/Large/Colorectum, read-out: Proliferation Inhibition (EC50)): 7.1 nM
EC50 (MIA PaCa-2, MIAPACA2, KRAS G12C, Pancreas, read-out: Proliferation Inhibition (EC50)): 61.8 nM
EC50 (NCI-H23, NCIH23, KRAS G12C, Lung, read-out: Proliferation Inhibition (EC50)): 7.1 nM
EC50 (NCI-H358, NCIH358, KRAS G12C, Lung, read-out: Proliferation Inhibition (EC50)): 3.9 nM
EC50 (NCI-H441, NCIH441, KRAS G12V, Lung, read-out: Proliferation Inhibition (EC50)): 2.6 nM
EC50 (NCI-H727, NCIH727, KRAS G12V, Lung, read-out: Proliferation Inhibition (EC50)): 4.2 nM
EC50 (NCI-H1299, NCIH1299, NRAS Q61K, Lung, read-out: Proliferation Inhibition (EC50)): 26.3 nM
EC50 (NCI-H1373, NCIH1373, KRAS G12C, Lung, read-out: Proliferation Inhibition (EC50)): 5.2 nM
EC50 (NCI-H1792, NCIH1792, KRAS G12C, Lung, read-out: Proliferation Inhibition (EC50)): 7.4 nM
EC50 (NCI-H2009, NCIH2009, KRAS G12A, Lung, read-out: Proliferation Inhibition (EC50)): 19.3 nM
EC50 (NCI-H2087, NCIH2087, NRAS Q61K, Lung, read-out: Proliferation Inhibition (EC50)): 4 nM
EC50 (NCI-H2122, NCIH2122, KRAS G12C, Lung, read-out: Proliferation Inhibition (EC50)): 6.7 nM
EC50 (NOZ, KRAS G12V, Liver/Bile duct, read-out: Proliferation Inhibition (EC50)): 33.1 nM
EC50 (NRAS^Q61X cells, read-out: median EC50, cell growth inhibition): 22 nM
EC50 (OVCAR-5, OVCAR5, KRAS G12V, Ovary, read-out: Proliferation Inhibition (EC50)): 2 nM
EC50 (PANC-1, PANC1, KRAS G12D, Pancreas, read-out: Proliferation Inhibition (EC50)): 1.4 nM
EC50 (PANC-03-27, PANC0327, KRAS G12V, Pancreas, read-out: Proliferation Inhibition (EC50)): 1 nM
EC50 (PL45, PL45, KRAS G12D, Pancreas, read-out: Proliferation Inhibition (EC50)): 86.5 nM
EC50 (Panc 05.04, PANC0504, KRAS G12D, Pancreas, read-out: Proliferation Inhibition (EC50)): 6.1 nM
EC50 (Panc1005, PANC1005, KRAS G12D, Pancreas, read-out: Proliferation Inhibition (EC50)): 27.1 nM
EC50 (RBE, KRAS G12V, Liver/Bile duct, read-out: Proliferation Inhibition (EC50)): 5.8 nM
EC50 (RKO*, BRAF V600E, Intestine/Large/Colorectum, read-out: Proliferation Inhibition (EC50)): > 100 nM
EC50 (SHP77, SHP77, KRAS G12V, Lung, read-out: Proliferation Inhibition (EC50)): > 100 nM
EC50 (SK-CO-1, SKCO1, KRAS G12V, Intestine/Large/Colorectum, read-out: Proliferation Inhibition (EC50)): 3 nM
EC50 (SK-LU-1, SKLU1, KRAS G12D, Lung, read-out: Proliferation Inhibition (EC50)): 6 nM
EC50 (SK-MEL-2, SKMEL2, NRAS Q61R, Skin, read-out: Proliferation Inhibition (EC50)): 38.8 nM
EC50 (SK-N-AS, SKNAS, NRAS Q61K, Brain and Nerves, read-out: Proliferation Inhibition (EC50)): 8.3 nM
EC50 (SK-N-SH, SKNSH, NRAS Q61K, Brain and Nerves, read-out: Proliferation Inhibition (EC50)): > 100 nM
EC50 (SNU1, SNU1, KRAS G12D, Stomach, read-out: Proliferation Inhibition (EC50)): 13 nM
EC50 (SNU719, NRAS Q61L, Stomach, read-out: Proliferation Inhibition (EC50)): 32.2 nM
EC50 (SNU-387, SNU387, NRAS Q61K, Liver, read-out: Proliferation Inhibition (EC50)): 9.2 nM
EC50 (SNU-601, SNU601, KRAS G12D, Stomach, read-out: Proliferation Inhibition (EC50)): 26.2 nM
EC50 (SNUC2A, KRAS G12D, Intestine/Large/Colorectum, read-out: Proliferation Inhibition (EC50)): > 100 nM
EC50 (SU.86.86, SU8686, KRAS G12D, Pancreas, read-out: Proliferation Inhibition (EC50)): 20.2 nM
EC50 (SW480, SW480, KRAS G12V, Intestine/Large/Colorectum, read-out: Proliferation Inhibition (EC50)): 5.1 nM
EC50 (SW626, SW626, KRAS G12V, Ovary, read-out: Proliferation Inhibition (EC50)): 3.8 nM
EC50 (SW756, SW756, KRAS G12C, Ovary, read-out: Proliferation Inhibition (EC50)): 26.9 nM
EC50 (SW837, SW837, KRAS G12C, Intestine/Large/Colorectum, read-out: Proliferation Inhibition (EC50)): 18.8 nM
EC50 (SW900, SW900, KRAS G12V, Lung, read-out: Proliferation Inhibition (EC50)): 3.1 nM
EC50 (SW 1116, SW1116, KRAS G12A, Intestine/Large/Colorectum, read-out: Proliferation Inhibition (EC50)): 70.9 nM
EC50 (SW1271, SW1271, NRAS Q61R, Lung, read-out: Proliferation Inhibition (EC50)): 4.6 nM
EC50 (SW1463, SW1463, KRAS G12C, Intestine/Large/Colorectum, read-out: Proliferation Inhibition (EC50)): 20.4 nM
EC50 (SW1573, SW1573, KRAS G12C, Lung, read-out: Proliferation Inhibition (EC50)): > 100 nM
EC50 (SW1990, SW1990, KRAS G12D, Pancreas, read-out: Proliferation Inhibition (EC50)): 6.7 nM
EC50 (SW-403, SW403, KRAS G12V, Intestine/Large/Colorectum, read-out: Proliferation Inhibition (EC50)): 3.5 nM
EC50 (SW-620, SW620, KRAS G12V, Intestine/Large/Colorectum, read-out: Proliferation Inhibition (EC50)): 2.7 nM
EC50 (UMUC3, UMUC3, KRAS G12C, Bladder, read-out: Proliferation Inhibition (EC50)): 2.6 nM
EC50 (YCC2, KRAS G12S, Stomach, read-out: Proliferation Inhibition (EC50)): 22.9 nM
EC50 (all three BRAF^V600E mutant cells, read-out: resistance to growth inhibition): > 100 nM
